Marks after values point to notes of the source that are not given here.
Assays:
[1] = tested on: P-450 and B5 cytochromes; assay: Hepatic content of P-450 and B5 cytochromes (microsomal liver fraction); assay type: in vivo, guinea pigs; settings: guinea pig liver microsomes; administered three times 72, 48 and 24 hours before
Experimental: Change in hepatic monooxygenase system was studied on mongrel male guinea pigs with initial mass 250-300 g; each group included 12 animals. […]. The content of P-450 and […] cytochromes was measured according to the published method [Omura T., Scato R. The monooxide binding pigment of liver microsomes. 11. Solubilization, purification and properties. J. Chem. (1964), Vol. 239, pp. 2379-2385] in microsomal liver fraction, isolated using differential centrifugation method [Ahokas J., Pelkonen O., Karkin N. Charcaterisation of BP-hydroxylase of Trout-liver. Cancer Res. (1977), Vol. 37, pp. 3737-3743]. The priority method {Izotov M.V., Scherbakov V.M., Devichensky V.M. et al. The method of determining the content of P-450 cytochrome isoenzymes in liver microsomes. The inventor's certificate No 1,488,738. B.I. (1989), No 3.-6.06.09, ICI, 01. - No 33/15, No 33/48]. Microsomal protein content was determined using the modified Lowry method [Hartree E. Determination of protein: a modification of the Lowry method, that gives a linear photometric responces. Ann. Biochem. (1972), Vol. 48, pp. 422-427].

[2] = tested on: [C^14]-arachidonic acid; assay: Metabolism of [C^14]-arachidonic acid in pulmonary tissue homogenate of treated mice; assay type: in vivo, CBA male mice; settings: CBA mice lung homogenate; 80 µg/kg for three days
Experimental: Studies were carried out on CBA male mice fed a standard vivarium ration. […] Then animals were sacrified, their lungs were taken out, frozen in liquid nitrogen, homogenized in a glass homogenizer manufactured by the Wheaton company (U.S.A.) at +4°C in 10 volumes 0.05 M Tris-HCl buffer. […] Densitometry of the autoradiochromatograms obtained on the X-ray films X-Omat AR (Kodak, U.S.A.) and HS 11 (ORWO, Germany) were performed on the KS 3 densiscan (Kipp and Zonnen, Holland). Quantative analysis of individual eucosanoids was carried out using radiometry of the fractions obtained with high performance liquid chromatography (the Gilson company HPLC-system, France; the Du Pont company ZORBAX C8 column, U.S.A.) and with elution of spots on TLC-plates.

[3] = tested on: Male guinea pigs; assay: Antigen-induced bronchospasm in actively sensitized guinea pigs; assay type: in vivo; settings: for Bronchospasm (percent of the maximum value): sensitized guinea pigs
Experimental: Antiasthmatic effect of the test compounds was studied using an antigen-induced bronchospasm model in actively sensitized guinea pigs according to the Andersson method [Andersson P. Antigen induced bronchial anaphylaxis in actively sensitized guinea pig. Allergy (1980), Vol. 35, pp. 65-71].
Male guinea pigs were sensitized with intramuscular injection of 0.5 ml suspension comprising 20 micrograms ovalbumin (OVA, manufactured by the Sigma company [grade III]) and 100 mg Al(OH)3 per one animal. Anaphylaxis-provoking dose 150-200 µg/kg OVA in 0.1 ml normal saline was intravenously (v. jugularis) injected on day 26 after sensibilization. Bronchospasm induction and measuring external respiration parameters were carried out according to the method described in Yu-Hong L., Barnes P., Rogers D. Inhibition of neurogenic plasma exudation and bronchoconstriction by a K+ channel activator, BRL 38227, in guinea pig airways in vivo. Europ. J. Pharmacol. (?), Vol. 239, pp.257-259]. Measurement of respiration parameters was performed using a transducer (Ugo Basel, model 7020), connected with a cannula and a recorder (Millichrome), recording breathing amplitude. […] Efficacy of compounds was determined by change in bronchospasm value.
Inthal was used as a reference drug that was administered to animals at a dose 5 µg/kg according to the same dosage regimen as the test substances were administered. The control group of animals received equivalent amount of normal saline.
Groups of animals: group 1 - control; group 2 - animals given Inthal; group 3 - animals given oral compound XLIV; group IV - animals given oral compound III; group 5 - animals given intratracheal compound III; group 6 - animals given compound XLIX, group 7 - animals given compound XXXI, group 8 - animals given compound XLVI; group 9 - animals given compound VI, group 10 - animals given compound XLVIII.

[4] = tested on: mongrel guinea-pigs; assay: Food anaphylaxis (active anaphylactic shock) in OVA-sensitized guinea pigs; settings: oral 3 days before provoking anaphylaxis, 1000 µg/kg
[5] = tested on: mongrel male mice; assay: Passive cutaneous anaphylaxis reaction; assay type: in vivo; settings: PCA, oral 3 days, 2 µg/kg
Experimental: Experiments were carried out on mongrel male mice with initial body mass 22-24 g. Each group included 10 animals. Sensibilization of animals was accomplished by intradermal injection of 20-30 µl of the serum of mice obtained from preliminaryly immunized animals comprising reagent antibodies against chicken ovalbumin (OVA). […] In 48 hours after sensibilzation an anaphylaxis-provoking OVA dose (1 mg and 0,2 ml Evans blue in 0.2 ml normal saline) were intravenously injected to mice. Passive cutaneous anaphylaxis reaction intensity (PCA) was determined in 30 minutes by the size (area) of a blue spot on the internal skin surface in the site of reagent anibodies' administration. Spot size was measured in two mutually perpendicular directions and the result was expressed in mm^2.

[6] = tested on: hepatic P-450 cytochrome system; assay: Hexenal sleep duration in mice; assay type: in vivo; settings: CBF1 mice, oral 3 days, control 25.91 ± 1.57
In short: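 Male mice (several inbred/hybrid lines, 18-20 g, n=10) and mongrel male guinea pigs (250-300 g, n=24) given compounds orally in drinking water for three days at 50 and 500 µg/kg. Hexenal given 24 h after last dose ([…]); sleep duration recorded in minutes.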

[7] = tested on: mongrel male mice; assay: Delayed hypersensitivity induced by picryl chloride (TCB), local ointment; assay type: in vivo; settings: mice, TCB
Experimental: Effect study of the compounds on the delayed type hypersensitivity reaction induced in mice by 2.4.6-trichlorobenzol (TCB) was carried out according to the method of Tarayre et al. [Tarayre J.P., Barbara M., Aliaga M., Tisne-Versilles. Comparative actions of immunosuppressants, glucocorticoids and non-steroidal antiinflammatory drugs on various models of delayed hypersensitivity and on a non-immune inflammation in mice. Arzneim.-Forsch. Drug Res. (1990), Vol. 40, pip.1125-1131].
Studies were conducted on mongrel male mice with initial body mass 30-35 g. Each group included 10 animals. Mice were sensitized with 0.1 ml 3% TCB solution in acetone application on a shaved abdominal area. In 7 days, the anaphylaxis-provoking TCB dose (0.025 ml of 3% solution) was applied on both surfaces of the right ear. In 30 minutes 0.05 ml of the test ointment were rubbed into the same surfaces. 24 hours after edema induction, mice were sacrified, ears were cut off and weighed. Allergic reaction intensity was assessed by change in weight in grams of the right ear (the test one) in relation to the left ear (the control ear).
Allergic reaction inhibition expressed in percent was calculated according to the formula: 100-[(R-L(exper.))/(L):(R-L(control))/(L)x100](%) [formula] where R - the right ear weight, L - the left ear weight.
The test compounds were applied on the ear in the form of 1% and 5% ointment the base of which were 10% methylcellulose solution and propylene glycol at 1:1 ratio.
Groups of animals: • Group 1 - control, ointment base without active substance was applied on the ear of animals. • Group 2 - ointment base comprising 1% compound III was applied on the ear of animals. • Group 3 - ointment base comprising 1% compound XVII was applied on the ear of animals. • Group 4 - ointment base comprising 5% compound XLVIII was applied on the ear of animals.

[8] = tested on: Strain Aichi of type A human influenza virus; assay type: in vivo; settings: 50 µg/kg orally
[9] = tested on: white mongrel male rats; assay: Paw edema induced by Freund's complete adjuvant; assay type: in vivo; settings: rats, FCA edema
Experimental: Experiment was carried out on white mongrel male rats weghing 280-300 g. The model of paw edema induced by Freund's complete adjuvant (FCA), was reproduced according to the method of Ezamuzie and Umezurike [Ezamuzie Ch., Umezurike C.C. Effect of histamine H2-receptor antagonists on acute inflammatory of the rat paw oedema. J. Pharmacol. (1989), Vol. 41, pp. 261-265]. Paw volume measurement was done using a plethysmograph (Ugo Basile). Inhibition of inflammatory reaction expressed in percent, as calculated according to the formula: 100-[(R-L(exper.))/(L):(R-L(control))/(L)x100](%) [formula] where R - the right paw volume, L - the left paw volume.
Each group included 10 animals.
Group of animals: • Group 1 - control, animals were administered 0.5 ml of 1% starch solution. • Group 2 - animals were administered the compound XLVIII. • Group 3 - animals were administered the compound III. • Group 4 - animals were administered Naproxene.

[10] = 50 µg/kg per os, 72, 48 and 18 hours prior to bronchospasm induction
[11] = intragastral four times 50 µg/kg

## CCC1(c2ccccc2)C(=O)NC(=O)NC1=O [Phenobarbital, reference compound]
[1]
  B5 /P-450: 0.81
  B5 cytochrome nM/mg of protein: 1.21 ± 0.10 nM/mg of protein
  P-450B cytochromes nM/mg of protein: 0.76 ± 0.08 nM/mg of protein
  P-450B/p-450L: 1.02
  P-450 cytochrome nM/mg of protein: 1.50 ± 0.09 nM/mg of protein
[2]
  5-HETE+HHT, percent of AA conversion: 10.5 ± 0.26% of AA conversion
  6-keto-PGF1α, percent of AA conversion: 4.12 ± 0.12% of AA conversion
  12-, 15-HETE, percent of AA conversion: 27.1 ± 0.11% of AA conversion
  PGE2, percent of AA conversion: 3.82 ± 0.14% of AA conversion
  PGF2α, percent of AA conversion: 7.91 ± 0.08% of AA conversion
  Phospholipids, percent of AA conversion: 8.18 ± 0.21% of AA conversion
  TXB2, percent of AA conversion: 6.21 ± 0.18% of AA conversion
  Unmetabolized AA, percent of AA conversion: 14.5 ± 0.28% of AA conversion

## O=C([O-])c1cc(=O)c2c(OCC(O)COc3cccc4oc(C(=O)[O-])cc(=O)c34)cccc2o1.[Na+].[Na+] [Inthal, reference compound]
[3]; as compared with the control values
  decrease in bronchospasm value: ~50%
[3]; 5 mg/kg, 72, 48 and 18 hours prior to bronchospasm induction
  Bronchospasm (percent of the maximum value): 40.7 3.4* percent of the maximum value

## CCOC(=O)N1CCC(=C2c3ccc(Cl)cc3CCc3cccnc32)CC1 [Claritine, reference compound]
[4]
  Anaphylactic index: 2.03
  Lethality in percent: 25.0%
  Seizures in percent: 53.3%
[5]
  Percent of the reaction inhibition: 92.8%
  Reaction intensity, mm^2: 6.4 ± 2.3**^2 mm^2

## NC(CCC(=O)NCCc1c[nH]c2ccc(O)cc12)C(=O)O [compound XLIX, γ -L-glutamylserotonine]
[6]; 50 µg/kg
  Hexenal sleep duration (minutes): 19.68 ± 2.04** minutes
[3]; [10]
  Bronchospasm (percent of the maximum value): 33.0 9.4* percent of the maximum value

## CCCCCC(=O)NCCc1c[nH]c2ccccc12 [compound XXXI, N-HEXANOYLTRYPTAMINE]
[6]; 50 µg/kg
  Hexenal sleep duration (minutes): 12.59 ± 0.88*** minutes
[6]; 500 µg/kg
  Hexenal sleep duration (minutes): 12.61 ± 1.45*** minutes
[3]; [10]
  Bronchospasm (percent of the maximum value): 39.3 7.6* percent of the maximum value

## N[C@@H](CCC(=O)NCCc1c[nH]c2ccccc12)C(=O)O [compound XLVIII, γ -L-glutamyltryptamine]
[7]; 5% ointment
  Reaction inhibition (%): 54%
  weight increment: 3.7 ± 0.81 g
[7]; 5% ointment on right ear 30 minutes after challenge, 24 hours
  Weight of years (g) Right: 17.9 ± 0.94 g
[7]; left (control) ear of animals given 5% ointment
  Weight of years (g) left: 14.2 ± 0.98 g
[8]; series with control - 1 (5.76), 3 days before and 10 days following infection
  MLT, days: 9.58*^1 days
[8]; series with control - 1 (16.7)
  Survival rate in percent: 34.5*^1%
[8]; series with control - 1
  Protection degree in percent: 17.8%
[9]; [11]
  Inflammation inhibition (%): 19%
  Volume increment: 0.65 ± 0.04
  Volume of paws (conditional units) left: 1.30 ± 0.62 conditional units
[9]; intragastral four times 50 µg/kg 72, 48, 24 and 1 hour before FCA
  Volume of paws (conditional units) Right: 1.95 ± 0.48 conditional units
[6]; 50 µg/kg
  Hexenal sleep duration (minutes): 16.27 ± 1.26** minutes
[3]; [10]
  Bronchospasm (percent of the maximum value): 22.0 3.4* percent of the maximum value

Reference: patent publication EP2229935A1, “Peptide derivatives or pharmaceutically acceptable salts thereof, method for producing the same, use of said derivatives and pharmaceutical composition” (Nebolsin, Vladimir Evgenievich, priority 1997, dated 1999)
